{"source": "ChEMBL document CHEMBL1955771", "about": "“VX-322: a novel dual receptor tyrosine kinase inhibitor for the treatment of acute myelogenous leukemia” (J Med Chem, 2012)", "key": {"[1]": {"biological_target": "T1, Receptor-type tyrosine-protein kinase FLT3 (Homo sapiens, UniProt P36888)", "T1 sequence (P36888 whole entry)": "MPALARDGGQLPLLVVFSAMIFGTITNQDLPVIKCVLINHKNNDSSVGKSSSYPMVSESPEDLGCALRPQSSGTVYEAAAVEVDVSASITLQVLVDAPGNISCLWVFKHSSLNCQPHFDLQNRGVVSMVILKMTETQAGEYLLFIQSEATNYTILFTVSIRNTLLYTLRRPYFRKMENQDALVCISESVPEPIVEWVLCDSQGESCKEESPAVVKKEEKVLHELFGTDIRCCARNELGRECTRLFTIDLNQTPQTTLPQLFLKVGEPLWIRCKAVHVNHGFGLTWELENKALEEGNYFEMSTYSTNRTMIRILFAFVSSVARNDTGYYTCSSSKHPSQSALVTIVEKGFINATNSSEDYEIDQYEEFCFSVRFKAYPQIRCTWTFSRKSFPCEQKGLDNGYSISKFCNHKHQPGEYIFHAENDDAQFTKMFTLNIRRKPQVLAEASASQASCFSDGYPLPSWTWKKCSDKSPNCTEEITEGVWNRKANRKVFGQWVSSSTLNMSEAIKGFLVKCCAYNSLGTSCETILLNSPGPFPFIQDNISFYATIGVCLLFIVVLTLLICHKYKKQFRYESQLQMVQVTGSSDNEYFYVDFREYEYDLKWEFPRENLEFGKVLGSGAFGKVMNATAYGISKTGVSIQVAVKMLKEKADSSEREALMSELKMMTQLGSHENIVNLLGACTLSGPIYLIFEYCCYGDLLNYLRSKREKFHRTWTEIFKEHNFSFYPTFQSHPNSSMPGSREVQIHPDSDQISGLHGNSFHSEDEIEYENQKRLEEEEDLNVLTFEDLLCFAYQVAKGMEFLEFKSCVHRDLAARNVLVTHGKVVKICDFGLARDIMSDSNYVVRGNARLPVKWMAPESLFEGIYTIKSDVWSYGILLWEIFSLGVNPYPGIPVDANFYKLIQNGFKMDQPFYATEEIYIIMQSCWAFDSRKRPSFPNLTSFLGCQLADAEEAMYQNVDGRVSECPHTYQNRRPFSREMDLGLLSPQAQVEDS", "assay": "Inhibition of human recombinant FLT3 by radiometric assay"}, "[2]": {"biological_target": "T2, Tyrosine-protein kinase JAK3 (Homo sapiens, UniProt P52333)", "T2 sequence (P52333 whole entry)": "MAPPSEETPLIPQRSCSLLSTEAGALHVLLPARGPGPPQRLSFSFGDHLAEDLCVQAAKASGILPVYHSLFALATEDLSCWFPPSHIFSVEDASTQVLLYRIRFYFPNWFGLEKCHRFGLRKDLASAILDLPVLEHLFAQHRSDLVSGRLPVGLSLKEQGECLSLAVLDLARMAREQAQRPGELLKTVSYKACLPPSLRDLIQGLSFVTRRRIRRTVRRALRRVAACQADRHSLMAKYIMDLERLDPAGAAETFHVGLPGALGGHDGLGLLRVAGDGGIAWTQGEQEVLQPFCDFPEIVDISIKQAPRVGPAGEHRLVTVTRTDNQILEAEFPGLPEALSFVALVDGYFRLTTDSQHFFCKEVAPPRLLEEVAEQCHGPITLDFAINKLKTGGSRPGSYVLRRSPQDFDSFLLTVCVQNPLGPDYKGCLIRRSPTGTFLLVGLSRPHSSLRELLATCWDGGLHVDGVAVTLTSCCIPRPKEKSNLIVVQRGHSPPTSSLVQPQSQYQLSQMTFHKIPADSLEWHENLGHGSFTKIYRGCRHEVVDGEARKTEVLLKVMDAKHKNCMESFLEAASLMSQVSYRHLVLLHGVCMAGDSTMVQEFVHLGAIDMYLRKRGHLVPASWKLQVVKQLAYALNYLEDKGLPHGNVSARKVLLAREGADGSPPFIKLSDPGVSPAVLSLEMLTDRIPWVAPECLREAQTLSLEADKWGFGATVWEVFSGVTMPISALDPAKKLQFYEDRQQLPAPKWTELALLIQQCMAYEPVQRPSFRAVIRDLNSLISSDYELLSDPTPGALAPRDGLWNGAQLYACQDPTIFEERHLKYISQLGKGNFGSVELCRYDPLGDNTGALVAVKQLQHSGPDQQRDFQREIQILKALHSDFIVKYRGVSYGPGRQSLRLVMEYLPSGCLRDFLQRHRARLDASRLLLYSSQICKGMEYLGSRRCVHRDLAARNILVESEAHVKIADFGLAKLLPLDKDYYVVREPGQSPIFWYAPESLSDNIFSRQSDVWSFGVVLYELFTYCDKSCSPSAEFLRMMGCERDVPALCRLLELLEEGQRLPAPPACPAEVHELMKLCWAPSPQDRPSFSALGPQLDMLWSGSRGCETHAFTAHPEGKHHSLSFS", "assay": "Inhibition of Jak3"}, "BaF3 [3]": {"tested_on": "BaF3", "assay": "Antitumor activity against mouse BA/F3 cells expressing FLT3-ITD mutant xenografted in BALB/c mouse myeloproliferative model assessed as increase in host survival days at 5 mg/kg, po qd relative to control (reference value: 20 days)", "assay_type": "functional, organism-based", "set-up": "dose 5 mg/kg"}, "BaF3 [4]": {"tested_on": "BaF3", "assay": "Antitumor activity against mouse BA/F3 cells expressing FLT3-ITD mutant xenografted in BALB/c mouse myeloproliferative model assessed as increase in host survival days at 0.25 mg/kg, po qd relative to control (reference value: 20 days)", "assay_type": "functional, organism-based", "set-up": "dose 0.25 mg/kg"}, "Mus musculus [5]": {"tested_on": "Mus musculus", "assay": "Plasma concentration at steady state in BALB/c mouse xenografted with BA/F3 cells expressing FLT3-ITD mutant at 0.25 mg/kg, po qd", "assay_type": "ADME, organism-based, BaF3", "set-up": "dose 0.25 mg/kg, route oral", "conditions": "in vivo"}, "Mus musculus [6]": {"tested_on": "Mus musculus", "assay": "Antitumor activity against mouse BA/F3 cells expressing FLT3-ITD mutant xenografted in BALB/c mouse myeloproliferative model assessed as reduction of phosphorylated Stat5 level in spleen administered qd for 2 days measured after 8 hrs by immunohistochemistry analysis", "assay_type": "functional, organism-based", "conditions": "BaF3"}, "Mus musculus [7]": {"species_on_record": "Mus musculus", "assay": "Toxicity in BALB/c mouse assessed as change in body weight after 100 days", "assay_type": "organism-based", "conditions": "in vivo, 2400 h"}, "Mus musculus [8]": {"species_on_record": "Mus musculus", "assay": "Toxicity in BALB/c mouse assessed as signs of neutropenia after 100 days", "assay_type": "organism-based", "conditions": "in vivo, 2400 h"}, "BaF3 [9]": {"tested_on": "BaF3", "assay": "Antitumor activity against mouse BA/F3 cells expressing FLT3-ITD mutant xenografted in BALB/c mouse myeloproliferative model assessed as increase in host survival days administered by oral gavage qd relative to control", "assay_type": "functional"}, "Leukemia cell": {"tested_on": "Leukemia cell", "assay": "Cytotoxicity against human primary leukemia cells isolated from acute myeloid leukemia patient expressing wild type FLT3 assessed as cell viability at 0.0005 to 10 uM after 72 hrs by luciferase assay", "assay_type": "functional, cell-based"}, "TF-1": {"tested_on": "TF-1", "assay": "cells", "conditions": "Homo sapiens, TF-1, 72 h", "description": "Cytotoxicity against human TF1 cells expressing wild type c-KIT assessed as cell viability after 72 hrs by resazurin dye based fluorescence assay"}, "Kasumi 1": {"tested_on": "Kasumi 1", "assay": "cells", "conditions": "Homo sapiens, Kasumi 1, 72 h", "description": "Cytotoxicity against human Kasumi-1 cells expressing c-KIT assessed as cell viability after 72 hrs by resazurin dye based fluorescence assay"}, "THP-1": {"tested_on": "THP-1", "assay": "cells", "conditions": "Homo sapiens, THP-1, 72 h", "description": "Cytotoxicity against human THP1 cells assessed as cell viability after 72 hrs by resazurin dye based fluorescence assay"}}}
{"compound": "Nc1nc(Nc2ccc([C@H]3CC[C@H](N4CCOCC4)CC3)cc2)nn1-c1ccccn1", "values": [{"measurement": "Ki", "setting": "[1]", "value": 0.17, "unit": "nM"}, {"measurement": "Ki", "setting": "[2]", "value": 280, "unit": "nM"}, {"measurement": "MSD", "setting": "BaF3 [3]", "value": 62, "unit": "days"}, {"measurement": "MSD", "setting": "BaF3 [4]", "value": 25, "unit": "days"}, {"measurement": "Cpss", "setting": "Mus musculus [5]", "value": 22, "unit": "ng/mL"}, {"measurement": "Activity", "setting": "Mus musculus [6]", "value": "Dose-dependent effect"}, {"measurement": "Activity", "setting": "Mus musculus [7]", "value": "Non-toxic"}, {"measurement": "Activity", "setting": "Mus musculus [8]", "value": "Non-toxic"}, {"measurement": "Activity", "setting": "BaF3 [9]", "value": "Dose-dependent effect"}, {"measurement": "Activity", "setting": "Leukemia cell", "value": "> 80", "unit": "%"}, {"measurement": "IC50", "setting": "TF-1", "value": 1.6, "unit": "nM"}, {"measurement": "IC50", "setting": "Kasumi 1", "value": 30, "unit": "nM"}, {"measurement": "IC50", "setting": "THP-1", "value": "> 4000", "unit": "nM"}]}
